In patent US20250345378A1 (priority 2022, published 2025):
Where two headings read alike, the source gives them in different places.

Columns and labels:
[1] = system: 88 urinary tract infection E. coli isolates; format: cell-based, Escherichia coli; details: for Host Range % on MDR Subset (n = 21), Combination: Antibiotic + LBP-EC01 v.2 / Host Range % on all Strains (n = 88), Combination: Antibiotic + LBP-EC01 v.2 / Host Range % on Beta-lactam-Resistant Subset (n = 31), Combination: Antibiotic + LBP-EC01 v.2: antibiotic combined with LBP-EC01 v.2; for Host Range % on all Strains (n = 88), Combination: Antibiotic + CK618 v.2: antibiotic at breakpoint concentration plus cocktail 1 × 10^6 PFU/ml per bacteriophage
Description: (§1) Phage cocktail CK618 was tested in combination with and alongside antibiotics against two isolate panels. The first assay used a panel of 88 contemporaneous urinary tract infection (UTI) isolates from North America, Europe, Latin America, and Asia. […] The second assay used a panel made up of a 300-strain clinical isolate panel (Table 14) with an additional 4 strains of interest. […] Four of the same SOC antibiotics tested against the 88-isolate panel were tested against this panel. The non-SOC antibiotics were not included due to their limited use in clinical settings, and nitrofurantoin was not included due to the low probability of resistance to this drug.
(§2) For both isolate panels, antibiotic concentrations tested were determined by using Clinical and Laboratory Standards Institute (CLSI) or European Committee on Antimicrobial Susceptibility Testing (EUCAST) breakpoints at concentrations that kill susceptible isolates but allow intermediate or resistant isolates to grow in the standard AST microdilution assay (Table 17).
(§3) The composition of the proposed Phase 2 CRISPR-enhanced bacteriophage (CRISPR-phage, hereafter termed ‘crPhage’) cocktail (CK618) has been updated from the CK570 to include six bacteriophages as compared to three bacteriophages in CK570. Bacteriophage cocktail CK618, was prepared such that all bacteriophages had equivalent titers in the final cocktail. The cocktail was then mixed with bacteria to obtain final titers of 1×10^6 plaque-forming unit (PFU)/mL/phage for the cocktail and 1×10^5 colony-forming unit (CFU)/mL for the bacteria, resulting in a multiplicity of infection (MOI) of 10 for each bacteriophage in a sample. Briefly, 5 μl of each sample (CK618 alone, CK618 and antibiotics, antibiotics alone, or medium alone) was added to 5 μl of optical density (OD)-normalized bacterial isolate and 40 μl LB medium. Reactions were incubated at 37° C. with shaking and OD measurements were taken each hour for 20 hours.
(§4) Host range percentage is the percent of isolates that responded to treatment of antibiotics or CK618. In the case of the 88-isolate panel, results were analyzed on the complete panel as well as the subset of classified as multidrug-resistant (MDR) (n=21) and beta-lactam-resistant (n=31).
(§5) The first assay used a panel of 88 contemporaneous isolates. Twenty-one of those strains are classified as MDR, with resistance to 3 or more antibiotic classes. […] The second assay used the panel made up of a 300-strain clinical isolate panel with an additional 4 strains of interest.
(§6) Antibiotic concentrations tested were determined by using CLSI or EUCAST breakpoints at concentrations that kill susceptible strains but allow intermediate or resistant strains to grow in the standard AST microdilution assay (Table 27). LBP-EC01 v.2 was combined with bacteria resulting in a MO of 10 for each bacteriophage in a sample. In the case of the 88-isolate panel, results were analyzed on the complete panel as well as the subset of isolates classified as multidrug-resistant (MDR) (n=21) and beta-lactam-resistant (n=31).

[2] = system: 304 E. coli clinical isolates; format: cell-based, Escherichia coli; details: 304-isolate panel
Description: as §1, §2, §3, §4, §5, §6

[3] = 88-isolate panel, MDR subset, single agent
[4] = 88-isolate panel, all strains, single agent
[5] = 88-isolate panel, beta-lactam-resistant subset
[6] = 88-isolate panel, beta-lactam-resistant subset, single agent
[7] = antibiotic at breakpoint concentration (Table 17), cocktail 1 × 10^6 PFU/ml per bacteriophage, MOI 10

| Structure (SMILES) | Host Range % on Beta-lactam-Resistant Subset (n = 31), Combination: Antibiotic + CK618 v.2 ([1]; 88-isolate panel) [%] | Host Range % on Beta-lactam-Resistant Subset (n = 31), Single agent treatment ([1]; 88-isolate panel) [%] | Host Range % on MDR Subset (n = 21), Combination: Antibiotic + CK618 v.2 ([1]; 88-isolate panel) [%] | Host Range % on MDR Subset (n = 21), Single agent treatment ([1]; 88-isolate panel) [%] | Host Range % on MDR Subset (n = 21), Combination: Antibiotic + LBP-EC01 v.2 ([1]; 88-isolate panel, MDR subset) [%] | Host Range % on MDR Subset (n = 21), Single agent treatment [1, 3] [%] | Host Range % on all Strains (n = 88), Combination: Antibiotic + LBP-EC01 v.2 ([1]; 88-isolate panel, all strains) [%] | Host Range % on all Strains (n = 88), Single agent treatment [1, 4] [%] | Host Range % on Beta-lactam-Resistant Subset (n = 31), Combination: Antibiotic + LBP-EC01 v.2 [1, 5] [%] | Host Range % on Beta-lactam-Resistant Subset (n = 31), Single agent treatment [1, 6] [%] | Host Range % on all Strains (n = 88), Single agent treatment [1, 7] [%] | Host Range % on all Strains (n = 88), Combination: Antibiotic + CK618 v.2 [1] [%] | Host range % on MDR subset (n = 93), Combination: Antibiotic + LBP-CK618 [2] [%] | Host range % on MDR subset (n = 93), Single agent treatment [2] [%] | Host range % on beta-lactam-resistant subset (n = 91), Combination: Antibiotic + LBP-CK618 [2] [%] | Host range % on beta-lactam-resistant subset (n = 91), Single agent treatment [2] [%] | Host Range % on MDR Subset (n = 93), Combination Antibiotic + LBP-EC01 v.2 ([2]; MDR subset, antibiotic combined with LBP-EC01 v.2) [%] | Host Range % on all Strains (n = 304), Single agent treatment ([2]; all strains, single agent) [%] | Host Range % on Beta-lactam-Resistant Subset (n = 91), Combination: Antibiotic + LBP-EC01 v.2 ([2]; beta-lactam-resistant subset, antibiotic combined with LBP-EC01 v.2) [%] | Host range % on beta-lactam-resistant subset (n = 91), Single agent treatment ([2]; beta-lactam-resistant subset, single agent) [%] |
| --- | --- | --- | --- | --- | --- | --- | --- | --- | --- | --- | --- | --- | --- | --- | --- | --- | --- | --- | --- | --- |
| C=CC1=C(C(=O)O)N2C(=O)[C@@H](NC(=O)/C(=N\O)c3csc(N)n3)[C@H]2SC1 [Cefdinir] | 78.5 | 12.9 | 74.6 | 14.3 | 74.6 | 14.3 | 87.5 | 48.9 | 78.5 | 12.9 | 48.9 | 87.5 | – | – | – | – | – | – | – | – |
| CO/N=C(\C(=O)N[C@@H]1C(=O)N2C(C(=O)O)=C(CSc3nc(=O)c(=O)[nH]n3C)CS[C@H]12)c1csc(N)n1 [Ceftriaxone] | 81.7 | 15.1 | 77.8 | 20.6 | 77.8 | 20.6 | 92.4 | 64.4 | 81.7 | 15.1 | 64.4 | 92.4 | – | – | – | – | – | – | – | – |
| CC1=C(C(=O)O)N2C(=O)[C@@H](NC(=O)[C@H](N)c3ccccc3)[C@H]2SC1 [Cephalexin] | 81.7 | 11.8 | 76.2 | 14.3 | 76.2 | 14.3 | 87.9 | 49.2 | 81.7 | 11.8 | 49.2 | 87.9 | 79.6 | 24.7 | 79.1 | 8.8 | 79.6 | 57.6 | 79.1 | 8.8 |
| O=C1CN(/N=C/c2ccc([N+](=O)[O-])o2)C(=O)N1 [Nitrofurantoin] | 97.8 | 90.3 | 98.4 | 85.7 | 98.4 | 85.7 | 93.9 | 83.0 | 97.8 | 90.3 | 83.0 | 93.9 | – | – | – | – | – | – | – | – |
